Where two headings read alike, the source gives them in different places.
Assays:
tubulin = assay: photometric measurement of polymerisation of tubulin and depolymerisation of microtubules (350 nm); assay type: biochemical, bovine; settings: photometry, compared with taxol/control; for effect on polymerisation of tubulin: 37° C., tubulin 2 mg protein/ml; for stabilisation of microtubules (effect on depolymerisation): depolymerisation initiated by reducing temperature to 15° C.
Experimental: Bovine brains (each 330 g) are removed from freshly opened cows' heads and are transported in ice-cooled PM4-M buffer. Each brain is freed of the meninges and also of any thrombi and is homogenised with sufficient PM4M buffer in a cooling chamber. The homogenised material from 2 bovine brains is made up to a total volume of 1.0 liter with a total of 500 ml of buffer and is subjected to a first centrifugation (GSA rotor, 15 minutes, 4° C., 6500 g). The supernatant is freed of the sebaceous skin on the surface, filtered over 4 layers of thin muslin, transferred into counter-balanced centrifuge tubes (420 ml) and centrifuged again (Ti 45 rotor, 96000 g, 75 minutes, 4° C.). The supernatant is removed by pipette through the pellet and filtered over 6 layers of thin muslin, and a 50 mM GTP solution in 0.001M bicarbonate/PBS is added to obtain a final concentration of 1 mM. A first polymerisation is carried out in counter-balanced centrifuge tubes for 45 minutes in a water bath warmed to 37° C. The microtubules that have formed are removed by centrifugation (Ti 45 rotor, 27° C., 96000 g, 60 minutes), the supernatant is carefully removed by pipette and the very soft, opalescent pellet is carefully separated from the wall with a spatula. 40 ml of cold PM buffer are then added to the pellet, followed by homogenisation using a small glass mortar and incubation overnight (from 12 to 16 hours) on ice in counter-balanced centrifuge tubes in a cooling chamber. The depolymerisation product is removed by centrifugation in the Ti 60 rotor (4° C.; 96000 g, 60 minutes) and the supernatant is diluted with PM8-M buffer to 1:1, incubated in counter-balanced centrifuge tubes at 37° C. for 45 minutes and centrifuged again (Ti 45 rotor, 27° C., 96000 g, 60 minutes). The supernatant is carefully removed by pipette and the very soft opalescent pellet is taken up in 20 ml of cold PM buffer, homogenised carefully using a small glass mortar and incubated on ice for 30 minutes. The renewed centrifugation (Ti 60 rotor, 4° C., 96000 g, 60 minutes) gives tubulin, the protein content of which is determined according to Pearce or according to a photometric measurement at 280 nm. In the protein determination, dilutions of isolated material to PM buffer of 1:10, 1:20 and 1:40 are used. The PM buffer has own extinction and is deducted as a zero value from the determined protein content. The isolated material is diluted with PM buffer to the intended protein concentration (2 mg/ml).
The measurement of the polymerisation of tubulin and the depolymerisation of microtubules is carried out by photometry. Before the measurement, the tubulin prepared in accordance with Application Example 1 is thawed and degassed for 15 minutes. The photometer is set to a wavelength of 350 nm. 3 μl of solvent/sample, 6 μl of GTP ([…] final.) and 291 μl of tubulin (2 mg protein/ml) are pipetted into the dry and cleaned dishes (10 mm). The sample is carefully stirred (without causing air bubbles), immediately placed in dish carriages and the measuring operation is started at 37° C. Once the polymerisation maximum has been reached (solvent control and taxol 1E-5 mol/l after 20 minutes), the depolymerisation is initiated by reducing the temperature to 15° C. The measuring operation is stopped at the end of the depolymerisation and the course of the change in absorption is represented in graph form as a function of time and temperature (see FIG. 1).

[1] = system: MDA MB 435 mammary carcinoma cells; assay: anti-proliferative effect on tumour cell line, MTT method; assay type: cell-based; settings: for IC50: Homo sapiens; for inhibiting (anti-proliferative) activity compared with taxol, in words: MDA MB 435 cells, MTT, comparison with taxol
Experimental: The addition of the substance in several concentrations is carried out on day 1. The anti-proliferative effect is determined on day 3 using the MTT method. The IC50 values are determined therefrom.

[2] = MDA MB 435 mammary carcinoma cells, 5000 cells/well, substance added day 1, determined day 3, MTT, read-out: MDA-MB 435 cells IC50

COC(=O)N[C@@H](c1ccncc1)[C@@H](O)C(=O)O[C@H]1C[C@@]2(O)[C@@H](OC(=O)c3ccccc3)[C@@H]3[C@]4(OC(C)=O)CO[C@@H]4C[C@H](O)[C@@]3(C)C(=O)[C@H](OC(C)=O)C(=C1C)C2(C)C [Compound 1, 3'-desphenyl-3'-(4-pyridyl)-3'-N-debenzoyl-3'-N-methoxycarbonyl-taxol]
effect on polymerisation of tubulin (tubulin): inhibits the polymerisation
stabilisation of microtubules (effect on depolymerisation) (tubulin): stabilises the microtubules that have formed distinctly better than taxol
IC50 [1, 2]: 2 nM
inhibiting (anti-proliferative) activity compared with taxol, in words [1]: activity similar to that of taxol

COC(=O)N[C@@H](c1ccncc1)[C@@H](O)C(=O)O[C@H]1C[C@@]2(O)[C@@H](OC(=O)c3ccccc3)[C@@H]3[C@]4(OC(C)=O)CO[C@@H]4C[C@@H](O)[C@@]3(C)C(=O)[C@H](OC(C)=O)C(=C1C)C2(C)C [Compound 2, 3'-desphenyl-3'-(4-pyridyl)-3'-N-debenzoyl-3'-N-methoxycarbonyl-7-epi-taxol]
effect on polymerisation of tubulin (tubulin): much more pronounced acceleration of the polymerisation of tubulin
stabilisation of microtubules (effect on depolymerisation) (tubulin): stabilises the microtubules that have formed very much better than taxol
IC50 [1, 2]: 0.8 nM
inhibiting (anti-proliferative) activity compared with taxol, in words [1]: significantly improved inhibiting activity compared with taxol

COC(=O)N[C@@H](c1ccncc1)[C@@H](O)C(=O)O[C@H]1C[C@@]2(O)[C@@H](O)[C@@H]3[C@]4(OC(C)=O)CO[C@@H]4C[C@H](O)[C@@]3(C)C(=O)[C@H](OC(C)=O)C(=C1C)C2(C)C [Compound 3, 3'-desphenyl-3'-(4-pyridyl)-2,3'-N-bisdebenzoyl-3'-N-methoxycarbonyl-taxol]
effect on polymerisation of tubulin (tubulin): much more pronounced acceleration of the polymerisation of tubulin
stabilisation of microtubules (effect on depolymerisation) (tubulin): stabilises the microtubules that have formed better than taxol
IC50 [1, 2]: 8000 nM

COC(=O)N[C@@H](c1ccncc1)[C@@H](O)C(=O)O[C@H]1C[C@@]2(O)[C@@H](OC(=O)c3ccccc3)[C@@H]3[C@]4(OC(C)=O)CO[C@@H]4C[C@H](O)[C@@]3(C)C(=O)[C@H](O)C(=C1C)C2(C)C [Compound 4, 3'-Desphenyl-3'-(4-pyridyl)-3'-N-debenzoyl-3'-N-methoxycarbonyl-10-desacetyl-taxol]
effect on polymerisation of tubulin (tubulin): does not differ from taxol in respect of the polymerisation behaviour of tubulin
stabilisation of microtubules (effect on depolymerisation) (tubulin): stabilise the microtubules that have formed substantially better than taxol
IC50 [1, 2]: 60 nM

CC(=O)O[C@H]1C(=O)[C@@]2(C)[C@H]([C@H](OC(=O)c3ccccc3)[C@]3(O)C[C@H](OC(=O)[C@H](O)[C@@H](NC(=O)c4ccccc4)c4ccccc4)C(C)=C1C3(C)C)[C@]1(OC(C)=O)CO[C@@H]1C[C@@H]2O [Taxol, reference compound]
effect on polymerisation of tubulin (tubulin): speeds up the polymerisation of tubulin in comparison with the control
stabilisation of microtubules (effect on depolymerisation) (tubulin): inhibits depolymerisation
IC50 ([1]; MDA-MB-435, read-out: MDA-MB 435 cells IC50): 3 nM
